What all share (assay type): ADME
The target of data set [1] is T1, Cytochrome P450 2C8 (Homo sapiens, UniProt P10632).
T1 sequence (P10632 whole entry): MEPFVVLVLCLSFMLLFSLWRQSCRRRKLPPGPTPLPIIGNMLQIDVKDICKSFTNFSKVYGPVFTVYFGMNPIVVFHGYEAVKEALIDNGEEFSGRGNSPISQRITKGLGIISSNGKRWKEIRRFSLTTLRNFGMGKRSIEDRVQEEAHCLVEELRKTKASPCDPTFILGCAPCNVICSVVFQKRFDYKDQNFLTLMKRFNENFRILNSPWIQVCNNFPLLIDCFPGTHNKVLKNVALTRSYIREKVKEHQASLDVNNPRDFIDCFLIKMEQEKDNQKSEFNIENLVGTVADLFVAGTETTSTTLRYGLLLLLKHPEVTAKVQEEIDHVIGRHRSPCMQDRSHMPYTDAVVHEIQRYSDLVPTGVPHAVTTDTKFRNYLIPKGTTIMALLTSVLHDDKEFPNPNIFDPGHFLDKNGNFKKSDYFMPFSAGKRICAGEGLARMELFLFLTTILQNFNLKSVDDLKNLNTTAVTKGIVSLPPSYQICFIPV
In words: Inhibition of CYP2C8 in human liver microsomes assessed as enzyme-mediated metabolite formation using paclitaxel as substrate incubated for 5 mins followed by NADPH addition measured after 30 mins by LC-MS/MS analysis.

In data set [2] the target is T2, CYP2C9 (Homo sapiens, UniProt P11712). In words: Inhibition of CYP2C9 in human liver microsomes assessed as enzyme-mediated metabolite formation at 1 uM using diclofenac as substrate incubated for 5 mins followed by NADPH addition measured after 30 mins by LC-MS/MS analysis relative to control. To be noted: probe diclofenac, read-out: Activity. On the set-up: scale not given: the % may be the effect or the level left. (Liver microsomes are vesicles of endoplasmic reticulum, rich in cytochrome P450 enzymes.)

Data set [3] deals with CYP2D6 (Homo sapiens, UniProt P10635). The experiment in a line: Inhibition of CYP2D6 in human liver microsomes assessed as enzyme-mediated metabolite formation at 30 uM using dextromethorphan as substrate incubated for 5 mins followed by NADPH addition measured after 30 mins by LC-MS/MS analysis relative to control. On the set-up: scale not given: the % may be the effect or the level left. To be noted: probe dextromethorphan, read-out: Activity.

In data set [4] the target is T3, CYP3A4 (Homo sapiens, UniProt P08684). The experiment in a line: Inhibition of CYP3A4 in human liver microsomes assessed as enzyme-mediated metabolite formation at 0.1 uM using testosterone as substrate incubated for 5 mins followed by NADPH addition measured after 30 mins by LC-MS/MS analysis relative to control. Also on record: scale not given: the % may be the effect or the level left. To be noted: probe testosterone, read-out: Activity.

Data set [5] deals with T4, Cytochrome P450 3A4 (Homo sapiens, UniProt P08684). In words: Inhibition of CYP3A4 in human liver microsomes assessed as enzyme-mediated metabolite formation using testosterone as substrate incubated for 5 mins followed by NADPH addition measured after 30 mins by LC-MS/MS analysis.
Data set [6] deals with T5, CYP1A2 (Homo sapiens, UniProt P05177).
T5 sequence (P05177 whole entry): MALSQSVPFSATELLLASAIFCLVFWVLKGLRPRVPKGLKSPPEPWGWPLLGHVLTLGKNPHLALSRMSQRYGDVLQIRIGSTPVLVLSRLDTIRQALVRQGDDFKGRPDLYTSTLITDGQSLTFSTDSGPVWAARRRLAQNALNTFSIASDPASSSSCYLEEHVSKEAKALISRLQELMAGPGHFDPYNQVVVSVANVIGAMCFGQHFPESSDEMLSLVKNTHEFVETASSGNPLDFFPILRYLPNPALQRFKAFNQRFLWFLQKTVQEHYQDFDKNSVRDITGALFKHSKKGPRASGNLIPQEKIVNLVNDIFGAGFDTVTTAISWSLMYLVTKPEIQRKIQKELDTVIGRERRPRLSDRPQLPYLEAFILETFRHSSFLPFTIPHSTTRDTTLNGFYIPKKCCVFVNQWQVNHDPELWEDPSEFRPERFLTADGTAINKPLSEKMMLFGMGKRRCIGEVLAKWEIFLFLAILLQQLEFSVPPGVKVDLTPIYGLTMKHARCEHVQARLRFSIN
The experiment in a line: Inhibition of CYP1A2 in human liver microsomes assessed as enzyme-mediated metabolite formation at 30 uM using phenacetin as substrate preincubated for 20 mins followed by substrate addition measured after 30 mins in presence of NADPH by LC-MS/MS analysis relative to control. Also on record: scale not given: the % may be the effect or the level left. The conditions noted are these: probe phenacetin, read-out: Activity.

Data set [7] addresses T6, CYP2B6 (Homo sapiens, UniProt P20813).
T6 sequence (P20813 whole entry): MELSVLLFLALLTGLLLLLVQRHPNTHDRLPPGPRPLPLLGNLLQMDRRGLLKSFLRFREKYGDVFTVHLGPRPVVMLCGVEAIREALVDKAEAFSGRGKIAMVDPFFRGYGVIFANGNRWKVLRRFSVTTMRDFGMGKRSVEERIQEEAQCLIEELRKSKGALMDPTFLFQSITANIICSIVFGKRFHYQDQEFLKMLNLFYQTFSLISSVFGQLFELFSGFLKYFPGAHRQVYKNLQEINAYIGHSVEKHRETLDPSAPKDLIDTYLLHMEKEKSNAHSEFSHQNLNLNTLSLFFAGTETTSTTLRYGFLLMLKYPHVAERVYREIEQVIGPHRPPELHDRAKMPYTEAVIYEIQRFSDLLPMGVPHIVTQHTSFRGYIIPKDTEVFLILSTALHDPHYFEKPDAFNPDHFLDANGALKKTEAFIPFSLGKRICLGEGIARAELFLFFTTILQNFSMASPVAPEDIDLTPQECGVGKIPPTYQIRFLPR
In words: Inhibition of CYP2B6 in human liver microsomes assessed as enzyme-mediated metabolite formation at 3 uM using bupropion as substrate preincubated for 20 mins followed by substrate addition measured after 30 mins in presence of NADPH by LC-MS/MS analysis relative to control. On the set-up: scale not given: the % may be the effect or the level left. To be noted: probe bupropion, read-out: Activity.

The target of data set [8] is T2, CYP2C9. In words: Inhibition of CYP2C9 in human liver microsomes assessed as enzyme-mediated metabolite formation at 0.1 uM using diclofenac as substrate preincubated for 20 mins followed by substrate addition measured after 30 mins in presence of NADPH by LC-MS/MS analysis relative to control. Also on record: scale not given: the % may be the effect or the level left. To be noted: probe diclofenac, read-out: Activity.

In data set [9] the target is T2, CYP2C9. The experiment in a line: Inhibition of CYP2C9 in human liver microsomes assessed as enzyme-mediated metabolite formation at 10 uM using diclofenac as substrate preincubated for 20 mins followed by substrate addition measured after 30 mins in presence of NADPH by LC-MS/MS analysis relative to control. Also on record: scale not given: the % may be the effect or the level left. The conditions noted are these: probe diclofenac, read-out: Activity.

Data set [10] deals with Cytochrome P450 2C19 (Homo sapiens, UniProt P33261). The experiment in a line: Inhibition of CYP2C19 in human liver microsomes using (S)-mephenytoin as substrate preincubated for 20 mins followed by substrate addition measured after 30 mins in presence of NADPH by LC-MS/MS analysis.
Data set [11] deals with T3, CYP3A4. In words: Inhibition of CYP3A4 in human liver microsomes assessed as enzyme-mediated metabolite formation at 30 uM using midazolam as substrate preincubated for 20 mins followed by substrate addition measured after 30 mins in presence of NADPH by LC-MS/MS analysis relative to control. On the set-up: scale not given: the % may be the effect or the level left. The conditions noted are these: probe midazolam, read-out: Activity.

Data set [12] concerns the target T4, Cytochrome P450 3A4. In words: Inhibition of CYP3A4 in human liver microsomes using testosterone as substrate preincubated for 20 mins followed by substrate addition measured after 30 mins in presence of NADPH by LC-MS/MS analysis.

This note sets out measurements from ChEMBL document CHEMBL4007467, “Effects of 6-paradol, an unsaturated ketone from gingers, on cytochrome P450-mediated drug metabolism” (Bioorg Med Chem Lett, 2017).

pIC50: −log10 of the molar value.

T2 sequence (P11712 whole entry): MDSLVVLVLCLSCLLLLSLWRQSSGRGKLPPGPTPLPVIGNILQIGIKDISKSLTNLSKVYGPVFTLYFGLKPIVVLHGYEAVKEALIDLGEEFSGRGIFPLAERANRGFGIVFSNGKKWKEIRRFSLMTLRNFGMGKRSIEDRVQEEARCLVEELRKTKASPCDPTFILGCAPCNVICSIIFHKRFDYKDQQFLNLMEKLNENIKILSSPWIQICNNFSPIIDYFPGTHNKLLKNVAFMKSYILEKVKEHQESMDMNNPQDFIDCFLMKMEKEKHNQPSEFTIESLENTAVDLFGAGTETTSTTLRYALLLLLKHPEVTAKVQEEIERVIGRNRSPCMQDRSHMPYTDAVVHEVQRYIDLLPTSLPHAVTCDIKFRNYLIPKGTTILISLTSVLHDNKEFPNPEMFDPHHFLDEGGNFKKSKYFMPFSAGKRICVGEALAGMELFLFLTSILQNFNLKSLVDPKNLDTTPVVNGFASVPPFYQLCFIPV
T4 sequence (P08684 whole entry): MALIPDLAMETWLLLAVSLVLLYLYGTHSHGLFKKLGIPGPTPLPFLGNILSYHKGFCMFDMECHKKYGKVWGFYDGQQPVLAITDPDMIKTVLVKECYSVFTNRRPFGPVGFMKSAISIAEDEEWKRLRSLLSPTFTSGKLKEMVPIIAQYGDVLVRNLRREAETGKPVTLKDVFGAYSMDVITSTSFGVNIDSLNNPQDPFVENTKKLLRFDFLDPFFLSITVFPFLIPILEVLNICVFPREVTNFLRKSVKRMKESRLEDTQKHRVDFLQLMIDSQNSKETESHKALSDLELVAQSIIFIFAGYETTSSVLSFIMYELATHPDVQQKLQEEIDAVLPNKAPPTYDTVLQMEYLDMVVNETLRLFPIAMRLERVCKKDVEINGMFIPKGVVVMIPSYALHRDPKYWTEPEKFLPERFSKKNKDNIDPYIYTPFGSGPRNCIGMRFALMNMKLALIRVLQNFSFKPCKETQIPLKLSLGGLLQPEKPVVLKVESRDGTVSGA
T3 sequence (P08684 whole entry): as above
Chain of CYP2D6 (P10635 whole entry): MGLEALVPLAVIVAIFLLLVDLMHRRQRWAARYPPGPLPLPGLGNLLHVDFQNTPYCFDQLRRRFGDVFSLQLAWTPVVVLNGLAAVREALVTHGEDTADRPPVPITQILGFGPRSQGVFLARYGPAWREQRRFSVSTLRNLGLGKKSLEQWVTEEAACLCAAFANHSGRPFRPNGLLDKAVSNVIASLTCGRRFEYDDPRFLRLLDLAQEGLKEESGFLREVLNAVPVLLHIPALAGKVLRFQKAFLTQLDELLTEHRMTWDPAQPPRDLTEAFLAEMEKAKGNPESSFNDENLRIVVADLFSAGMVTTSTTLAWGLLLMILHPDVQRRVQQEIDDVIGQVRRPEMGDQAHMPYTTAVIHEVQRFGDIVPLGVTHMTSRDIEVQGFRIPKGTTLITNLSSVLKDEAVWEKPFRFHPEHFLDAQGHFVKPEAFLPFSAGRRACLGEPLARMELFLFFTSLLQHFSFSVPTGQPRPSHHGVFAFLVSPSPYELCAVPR
Chain of Cytochrome P450 2C19 (P33261 whole entry): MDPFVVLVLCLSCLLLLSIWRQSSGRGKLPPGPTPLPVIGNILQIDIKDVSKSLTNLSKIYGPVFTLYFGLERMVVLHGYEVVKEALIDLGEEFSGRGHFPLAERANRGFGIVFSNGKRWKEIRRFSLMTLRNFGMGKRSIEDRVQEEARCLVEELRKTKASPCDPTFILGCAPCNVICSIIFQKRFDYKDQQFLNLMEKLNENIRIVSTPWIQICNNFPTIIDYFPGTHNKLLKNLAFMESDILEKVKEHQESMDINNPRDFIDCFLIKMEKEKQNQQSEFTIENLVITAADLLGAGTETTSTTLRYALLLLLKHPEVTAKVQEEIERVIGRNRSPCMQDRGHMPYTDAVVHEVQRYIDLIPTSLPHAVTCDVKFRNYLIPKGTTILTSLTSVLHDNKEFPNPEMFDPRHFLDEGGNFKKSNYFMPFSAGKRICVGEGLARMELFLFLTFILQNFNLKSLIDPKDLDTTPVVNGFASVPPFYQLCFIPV

As to `CCCCCCCC(=O)CCc1ccc(O)c(OC)c1`, the negative logarithm of the IC50 (pIC50) – broadly, the IC50 on a negative log10 scale, so that one unit is a factor of ten – is 5.29 in [1], 4.52 in [5], 5.44 in [10] and less than 4.52 in data set [12]. The activity at 0.5 h, 1 µM in data set [2] was 76.6%. For the same compound, the activity at 0.5 h, 30 µM was 53.8% in data set [3], 42.8% in data set [6] and 97.6% in data set [11]. Besides, the activity at 0.5 h, 0.1 µM in data set [4] was 100%; in data set [8] it was 76%. The activity at 0.5 h, 3 µM in [7] is 77.3%. Besides, the activity at 0.5 h, 10 µM in data set [9] turned out to be 60.8%.
